Target: Isoleucine--tRNA ligase (Escherichia coli (strain K12), UniProt P00956)
Test: Competitive Ligand Binding Assay
Details: pH 7.5; 20 °C
Source text: Utilizing an analytical ultracentrifuge, the binding constants of various amino acids and isoleucine analogues to IleRS were estimated from their competition with radioactively labeled L-isoleucine.

Chain of Isoleucine--tRNA ligase (P00956 whole entry): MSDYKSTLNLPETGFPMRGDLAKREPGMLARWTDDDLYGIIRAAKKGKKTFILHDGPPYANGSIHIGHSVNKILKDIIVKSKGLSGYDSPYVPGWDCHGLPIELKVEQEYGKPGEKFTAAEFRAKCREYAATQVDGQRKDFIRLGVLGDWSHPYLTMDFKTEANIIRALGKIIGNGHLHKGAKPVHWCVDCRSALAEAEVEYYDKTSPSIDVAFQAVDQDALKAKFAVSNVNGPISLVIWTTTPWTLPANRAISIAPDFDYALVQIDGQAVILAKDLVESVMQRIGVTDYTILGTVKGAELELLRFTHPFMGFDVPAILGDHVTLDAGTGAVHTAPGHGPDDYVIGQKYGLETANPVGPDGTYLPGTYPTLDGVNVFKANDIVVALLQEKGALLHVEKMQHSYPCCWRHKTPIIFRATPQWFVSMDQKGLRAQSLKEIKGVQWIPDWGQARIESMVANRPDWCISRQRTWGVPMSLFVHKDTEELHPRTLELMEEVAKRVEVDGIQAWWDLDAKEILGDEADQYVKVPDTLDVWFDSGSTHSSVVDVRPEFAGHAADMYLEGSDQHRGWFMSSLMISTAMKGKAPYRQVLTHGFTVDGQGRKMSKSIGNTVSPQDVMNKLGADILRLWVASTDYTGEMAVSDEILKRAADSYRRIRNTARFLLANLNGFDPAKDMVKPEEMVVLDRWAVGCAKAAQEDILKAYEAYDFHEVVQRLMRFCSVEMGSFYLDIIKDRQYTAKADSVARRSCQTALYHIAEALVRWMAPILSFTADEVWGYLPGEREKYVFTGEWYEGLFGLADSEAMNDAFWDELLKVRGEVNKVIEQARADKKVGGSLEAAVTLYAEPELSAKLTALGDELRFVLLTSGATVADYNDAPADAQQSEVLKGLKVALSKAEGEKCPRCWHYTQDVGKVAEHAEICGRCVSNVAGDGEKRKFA

| Compound | Ki [mM] |
| --- | --- |
| CCC[C@@H](CC)C(N)C(=O)O (mixture of isomers) [(3R)-2-amino-3-ethylhexanoic acid] | 5 |
| CCC(C)(C)[C@H](N)C(=O)O (racemic) [2-amino-3,3-dimethylpentanoic acid] | 1.25 |
| CC(C)(C)CC(N)C(=O)O (racemic) [2-amino-4,4-dimethylpentanoic acid] | 12.5 |
| CC(C)CCC(N)C(=O)O (racemic) [2-amino-5-methylhexanoic acid] | 3.33 |
| CCC(CC)C(N)C(=O)O (stereo unspecified) [2-amino-3-ethylpentanoic acid] | 0.53 |
| CCC(CC)[C@H](N)C(=O)O [(2S)-2-amino-3-ethylpentanoic acid] | 0.56 |
| CC(C)[C@H](N)CO [(2S)-2-amino-3-methylbutan-1-ol] | 14.3 |
| CCC(C)[C@H](N)CO (stereo partly drawn) [(2S)-2-amino-3-methylpentan-1-ol] | 8.33 |
| CC(C)(C)C[C@H](N)C(=O)O [(2S)-2-amino-4,4-dimethylpentanoic acid] | 12.5 |
| CC(C)CC[C@H](N)C(=O)O [(2S)-2-amino-5-methylhexanoic acid] | 2.5 |
| CCCCC[C@H](N)C(=O)O [(2S)-2-aminoheptanoic acid] | 16.7 |
| CC(C)[C@@H](C)[C@H](N)C(=O)O [(2S,3R)-2-amino-3,4-dimethylpentanoic acid] | 5 |
| CC(C)[C@H](C)[C@H](N)C(=O)O [(2S,3S)-2-amino-3,4-dimethylpentanoic acid] | 0.0455 |
| CCC[C@H](C)[C@H](N)C(=O)O [(2S,3S)-2-amino-3-methylhexanoic acid] | 0.05 |
| CC[C@H](C)C[C@H](N)C(=O)O [(2S,4S)-2-amino-4-methylhexanoic acid] | 2 |
| CC(C)[C@@H](C)C(N)C(=O)O (stereo partly drawn) [(3R)-2-amino-3,4-dimethylpentanoic acid] | 3.33 |
| CCCC[C@@H](C)C(N)C(=O)O (stereo partly drawn) [(3R)-2-amino-3-methylheptanoic acid] | 16.7 |
| CCC[C@@H](C)C(N)C(=O)O (stereo partly drawn) [(3R)-2-amino-3-methylhexanoic acid] | 1.67 |
| CCC[C@H](CC)C(N)C(=O)O (stereo partly drawn) [(3S)-2-amino-3-ethylhexanoic acid] | 5 |
| CCCC[C@H](C)C(N)C(=O)O (stereo partly drawn) [(3S)-2-amino-3-methylheptanoic acid] | 2.5 |
| CCC[C@H](C)C(N)C(=O)O (stereo partly drawn) [(3S)-2-amino-3-methylhexanoic acid] | 0.0588 |
